Results taken from publication PMC5244392, “Interspecies cathelicidin comparison reveals divergence in antimicrobial activity, TLR modulation, chemokine induction and regulation of phagocytosis” (Scientific Reports, 2017).

Experiments:
E. coli and MRSA = format: cell-based; settings: run of Fig. 1A; bacterium and medium not given
Procedure: In order to compare our Cmax with MBC values, wells without visible bacterial growth were plated out on TSA plates and incubated o/n at 37 °C to determine the presence of viable bacteria.
The antimicrobial capacities were tested under the same conditions and expressed as growth delay instead of the more classical MIC/MBC determination using broth dilution assays. […] The fact that DMEM medium makes S. aureus susceptible to PR-39 is surprising since this peptide is thought to require active uptake by the SbmA transporter, only present in Gram – bacteria. The results obtained in this work, might indicate that the peptide possibly switches to a different mechanism of action with initially a bacteriostatic effect, but more thorough studies are required to elucidate the details of these initial observations.

[1] = tested on: CCL2 (MCP-1) release by RAW264.7 cells; test: Cathelicidin induced CCL2 release; format: cell-based, murine; settings: 24 h, peptide 0.08-20 μM
Procedure: (§1) E. coli O78 (Zoetis Animal Health, Kalamazoo, MI, USA), E. coli ATCC 25922, Staphylococcus aureus ATCC 29213, and methicillin resistant Staphylococcus aureus (MRSA) (WKZ-2, human clinical isolate) were grown overnight from a glycerol stock in Mueller Hinton Broth (MHB) (Becton Dickinson, USA). Before use, bacteria were grown to mid-log phase in MHB for 2 hours at 37 °C, 200 RPM. Murine RAW264.7 macrophages (ATCC-TIB-71) were obtained from the American Type Culture Collection (ATCC, Manassas, VA, USA) and cultured in DMEM (41966-029; Thermo Fisher Scientific, Waltham, MA, USA) supplemented with 10% FCS (Bodinco B.V., Alkmaar, the Netherlands) (DMEM + FCS) at 37 °C, 5.0% CO2. Cells were seeded in 96-wells plates at 5 × 10^5 cells/ml or 12-wells plates at 2 × 10^5/ml for adherence overnight prior to stimulation.
ELISA Duoset kits for mouse TNFα, CCL5, CXCL10 and IL-10 were obtained from R&D systems (Minneapolis, MN, USA) and ELISAs were performed according to the manufacturer’s protocol. Samples were stored at −20 °C until analysis and, if needed, diluted in 1% BSA in PBS, pH 7.4. Absorbance at 450 nm was determined in a FLUOstar Omega microplate reader (BMG Labtech GmbH) and corrected for absorbance at 570 nm. Results were analyzed with MARS data analysis software (BMG Labtech GmbH).
Since cathelicidins have membrane-perturbing properties which might affect the host’s cell membrane, first the possible cytotoxicity of the cathelicidins to RAW264.7 cells was assessed. […] Next, RAW264.7 cells were stimulated with the cathelicidins at various concentrations for 2 h and 24 h, after which release of CCL2 (MCP-1), CCL5 (RANTES), CXCL10 (IP-10), TNFα and IL-10 was determined.
Figure 2 Cathelicidin induced chemokine and cytokine release by RAW264.7 cells. RAW264.7 cells were incubated for 2 h and 24 h with cathelicidins (0.08 μM, 0.31 μM, 1.25 μM, 5 μM, and 20 μM), after which the supernatants were harvested and tested for release of CCL2 at 2 h (A) and 24 h (B), CCL5 at 24 h (C) and CXCL10 at 24 h (D). Dotted line represents average cytokine release of control samples. Results are presented as average +/− SEM (N = 3). Statistical differences were determined by Two-way ANOVA with Bonferroni post-hoc test.

RAW264.7 cells = test: Phagocytosis assay with fluorescent latex beads; format: cell-based, murine; settings: latex beads 10 per cell, 30 min, peptide 0.31, 1.25 and 5 μM
Procedure: Red fluorescent (λex 575 nm and λem 610 nm) carboxylate-modified polystyrene latex beads (0.5 μm; Sigma Aldrich, St. Louis, MO, USA) were washed three times with PBS and resuspended in culture medium. Peptide dilutions were prepared in culture medium and added to RAW264.7 cells, directly followed by the latex beads (ratio 10 beads to 1 cell). Cells were incubated for 30 minutes at 37 °C, 5% CO2 (energy-dependent uptake) or 0 °C (non-specific adherence), after which cells were washed extensively with ice-cold PBS supplemented with 1% FCS and 0.01% NaN3, to remove all free beads. After washing, cells were scraped and resuspended in FACS buffer (PBS supplemented with 0.5% BSA). Samples were measured with the BD FACSCanto II flow cytometer (BD Biosciences, San Jose, CA, USA) and analyzed with FlowJo software (Ashland, OR, USA). Mean fluorescence intensity (MFI), corrected for non-specific adherence, was used as an indicator for the number of beads taken up.
While the above-described functions of cathelicidins are well-known, relatively little is known about the influence of cathelicidins on phagocytosis. Therefore, RAW264.7 cells were incubated with fluorescent beads to study the effect of cathelicidins on phagocytosis. The uptake was corrected for fluorescence measured after incubation on ice instead of 37 °C, which inhibits the active process of phagocytosis. After 30 minutes, 90% of the RAW264.7 cells took up latex beads (Fig. 4A). Histograms exemplify changes in bead phagocytosis with different concentrations of K9CATH (Fig. 4B), eCATH-2 (Fig. 4C) and chCATH-3 (Fig. 4D). Effect of all cathelicidins are depicted by the average mean fluorescence intensity (MFI) in Fig. 4E.
Figure 4 Effects of cathelicidins on phagocytosis by RAW264.7 cells. RAW264.7 cells were incubated with cathelicidins (0.31 μM, 1.25 μM, and 5 μM) and red fluorescent latex beads (10 beads to 1 cell) at 37 °C (energy dependent uptake) or on ice (non-specific adherence) for 30 minutes. Histograms show control (no peptide present) bead uptake at 37 °C (gray, filled) and 0 °C (black line) (A), or uptake in presence of different concentrations of indicated cathelicidins (B–D); 0 μM (red, filled), 0.31 μM (black line), 1.25 μM (green line) or 5 μM (blue line). Uptake was quantified by determining the MFI after correction for 0 °C control (E). Results are presented as average +/− SEM (N = 3). Statistical differences were determined by Two-way ANOVA with Bonferroni post-hoc test.

[2] = tested on: methicillin resistant Staphylococcus aureus (MRSA) (WKZ-2, human clinical isolate); test: Bacterial growth delay (Bioscreen C), MRSA; format: cell-based
Procedure: as §1
(§2) Peptides (0.63 to 40 μM) and bacteria mid-log cultures (2 * 10^6 CFU/ml) were prepared in MHB or DMEM + FCS and mixed (100 μl peptide + 100 μl bacterial culture) in a Bioscreen C analyzer plate (Oy Growth Curves Ab Ltd, Helsingfors, Finland). Plates were placed in a Bioscreen C analyzer (Oy Growth Curves Ab Ltd) and bacteria were grown for 16 h at 37 °C with 200 RPM. The OD was measured every 15 minutes using a wideband filter (450–580 nm) to measure bacterial growth. The time needed grow above an OD of 0.6 was determined for all concentrations. Activity of peptides was expressed as the Cmax, the concentration of peptide required to delay the growth for 10 h compared to the control. Or, for peptides with low activity (no Cmax), activity was expressed as the hours of growth delay at 20 μM. Unlike the classic MIC and MBC determination used in microbiology, this method also enabled comparison of peptides with low antibacterial activity.
(§3) Twelve cathelicidins from 6 different species were selected for this study, namely: human LL-37, murine CRAMP, dog K9CATH, equine CATH (eCATH)-1, -2 and -3, chicken CATH (chCATH)-1, -2, and -3, porcine PMAP-23 and -36 and PR-39 (Table 1). Antimicrobial activity against E. coli and MRSA was directly compared under standardized conditions in MHB, a medium optimized for bacterial growth. Bacterial growth delay was defined as the delay in hours for peptide-treated bacteria to reach an OD of 0.6, compared to the non-treated control. Cmax is the minimal concentration needed to delay growth for a minimum of 10 hours compared to the non-treated control (Table 1 and Fig. 1A).
(§4) Figure 1 Antibacterial activity of cathelicidins. E. coli and MRSA (1 × 10^6 CFU/ml) of were grown in MHB or DMEM ± FCS for 16 hours under constant shaking (200 RPM). Every 15 minutes the OD was measured. Growth delay was defined as the time needed for peptide-treated bacteria to grow above an OD of 0.6 compared to the control bacteria (no peptide added) (A). Cathelicidins were tested in different concentrations (0.31 μM, 0.63 μM, 1.25 μM, 2.5 μM, 5 μM, 10 μM, and 20 μM) to determine the antimicrobial activity in MHB against E. coli (B) or MRSA (C) and in more physiological medium DMEM + FCS (D,E). Results are presented as average +/− SEM (N = 4).

E. coli O78 = test: Bacterial growth delay (Bioscreen C), E. coli; format: cell-based, Escherichia coli; settings: for Max: hours growth delay with 20 μM cathelicidin, E. coli, DMEM: DMEM + FCS
Procedure: as §1, §2, §3, §4

[3] = MHB, 20 μM peptide, given if no Cmax was reached, N = 4
[4] = 20 μM peptide, given if no Cmax was reached, N = 4

Molecule	MBC (E. coli and MRSA) [µM]	Effect on CCL2 secretion after 24 h stimulation, in words [1]	Effect on bead uptake (phagocytosis), in words (RAW264.7 cells)	Cmax, MRSA, DMEM ([2]; DMEM + FCS, 1 × 10^6 CFU/ml, peptide 0.31-20 μM, 16 h, 37 °C, — = no Cmax reached up to 20 μM, N = 4) [µM]	Summary class, antimicrobial activity S. aureus DMEM ([2]; DMEM + FCS, MRSA, − is not defined in the key)	Max: hours growth delay with 20 μM cathelicidin, MRSA, MHB [2, 3] [h]	Summary class, antimicrobial activity S. aureus MHB ([2]; MHB, MRSA, − is not defined in the key)	Max: hours growth delay with 20 μM cathelicidin, E. coli, DMEM (E. coli O78; [4]) [h]	Cmax: cathelicidin concentration resulting in a delay in bacterial growth with minimal 10 hours, E. coli, MHB (E. coli O78; MHB, 1 × 10^6 CFU/ml, peptide 0.31-20 μM, 16 h, 37 °C, 200 RPM, time to OD 0.6 vs control, — = no Cmax reached up to 20 μM, N = 4) [µM]	Summary class, antimicrobial activity E. coli MHB (E. coli O78; MHB, − is not defined in the key)	Max: hours growth delay with 20 μM cathelicidin, MRSA, DMEM ([2]; DMEM + FCS, 20 μM peptide, given if no Cmax was reached, N = 4) [h]	Activity against E. coli in MHB, in words (E. coli O78; MHB, peptide up to 20 μM)	Max: hours growth delay with 20 μM cathelicidin, E. coli, MHB (E. coli O78; MHB, 20 μM peptide, given if no Cmax was reached, time to OD 0.6 vs control, N = 4) [h]
CC[C@H](C)[C@H](NC(=O)[C@H](CCCCN)NC(=O)[C@H](CCC(=O)O)NC(=O)[C@H](CCCCN)NC(=O)[C@H](CO)NC(=O)[C@H](CCCCN)NC(=O)[C@H](CCCNC(=N)N)NC(=O)[C@H](Cc1ccccc1)NC(=O)[C@H](Cc1ccccc1)NC(=O)[C@H](CC(=O)O)NC(=O)CNC(=O)[C@H](CC(C)C)NC(=O)[C@@H](N)CC(C)C)C(=O)NCC(=O)N[C@@H](CCCCN)C(=O)N[C@@H](CCC(=O)O)C(=O)N[C@@H](Cc1ccccc1)C(=O)N[C@@H](CCCCN)C(=O)N[C@@H](CCCNC(=N)N)C(=O)N[C@H](C(=O)N[C@H](C(=O)N[C@@H](CCC(N)=O)C(=O)N[C@@H](CCCNC(=N)N)C(=O)N[C@H](C(=O)N[C@@H](CCCCN)C(=O)N[C@@H](CC(=O)O)C(=O)N[C@@H](Cc1ccccc1)C(=O)N[C@@H](CC(C)C)C(=O)N[C@@H](CCCNC(=N)N)C(=O)N[C@@H](CC(N)=O)C(=O)N[C@@H](CC(C)C)C(=O)N[C@H](C(=O)N1CCC[C@H]1C(=O)N[C@@H](CCCNC(=N)N)C(=O)N[C@H](C(=O)N[C@@H](CCC(=O)O)C(=O)N[C@@H](CO)C(=O)O)[C@@H](C)O)C(C)C)[C@@H](C)CC)C(C)C)[C@@H](C)CC [LL-37]	> 20												
KRFGRLAKSFLRMRILLPRRKILLAS [eCATH-1, equine CATH-1, 26 residues, charge +9]		non-significant	did not affect bead uptake	20	+++ (+++ = Cmax at ≤20 μM)	7.5	+ (+ = >4 hours inhibition at 20 μM)	3.5	20	+++ (+++ = Cmax at ≤20 μM)			
KRFHSVGSLIQRHQQMIRDKSEATRHGIRIITRPKLLLAS [eCATH-3, equine CATH-3, 40 residues, charge +10]			did not affect bead uptake			0.0		1.5			1.5	no or very little activity	0.0
